Results on seven compounds are retold here after US20230286973A1, “PROTEIN SECRETION INHIBITORS” (KEZAR LIFE SCIENCES, priority 2020, published 2023).

Data set [1] is described as follows: Liver Microsome Stability Assay (monkey). The following applies: monkey liver microsomes, with NADPH, 1.0 uM compound.
Procedure: (§1) Stability of a compound was assessed in the presence of liver microsomes from various sources—mouse, rat, monkey and human liver microsomes. 1.0 uM compound, 0.4% DMSO in 0.1 M Potassium Phosphate with 1.0 mg/mL liver microsomes, were incubated at 37° C. with or without 1 mM NADPH. The samples were quenched at 0, and 30 minutes.
Data set [2] has as its system HER3-ss+4aa/Gaussia Luciferase. The data set is described as follows: Dox-Induced Her3-ss-Gluc Assay. It is filed as cell-based. The following applies: 24 hr Dox induction, 293FRT/TO cells, read-out: 24 hr Dox Inducible Her3(ss + 4)Gluc 293FRT/TO: Mean IC50. The text has this:
Flp-In 293 T-REx™ cells were transfected with pcDNA™5/FRT/TO plasmid inserted with cDNA encoding Gaussia Luciferase fused to the 3′ end of cDNA encoding HER3 signal sequence plus 4 amino acids (N-[…]-C) (SEQ ID NO: 2). Transfected cells were selected for resistance to the selectable markers Hygromycin and Blasticidin to create a stable cell line that contained the HER3-ss+4aa/Gaussia Luciferase cDNA insert whose expression was regulated under the T-REx™ system. The day before assay, cells were trypsinized and plated in 384-well tissue culture plates. The next day, compound dilutions in DMSO/media containing doxycycline were added to the wells and incubated at 37° C., 5% CO2.
For chemical structures that include one or more stereoisomers, but are illustrated without indicating stereochemistry, the assay data refers to a mixture of stereoisomers.

The nature of data set [3]: Liver Microsome Stability Assay (rat). The settings on record: rat liver microsomes, with NADPH, 1.0 uM compound. For orientation: Microsomes from liver hold many membrane-bound enzymes, among them those of drug oxidation.
Procedure: as §1
For data set [4], the system named is IL-2-FL/Gaussia Luciferase. Kind of data set: Dox Induced IL2-FL-Gluc Assay. The following applies: for pIC50: 24 hr Dox induction, 293FRT/TO cells, read-out: 24 hr Dox Inducible IL2FLGluc 293FRT/TO: Mean IC50; for 24 hr Dox Inducible IL2FLGluc 293FRT/TO: IL2/PD1: ratio of IL2FLGluc IC50 to PD1ssGluc IC50. In kind it is cell-based. The procedure, abridged:
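Stable Flp-In 293 T-REx cells carrying doxycycline-inducible full-length IL-2 (aa 1-153) fused to Gaussia luciferase, plated the day before assay. Compound dilutions added in medium containing doxycycline, incubated at 37 °C, 5% CO2. Undefined stereocentres mean data refer to stereoisomer mixtures.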

The test system of data set [5] is TNFα-FL/Gaussia Luciferase. The data set is described as follows: Dox Induced TNFα-FL-Gluc Assay. The following applies: for pIC50: 24 hr Dox induction, 293FRT/TO cells, read-out: 24 hr Dox Inducible TNFaFLGluc 293FRT/TO: Mean IC50; for 24 hr Dox Inducible TNFaFLGluc 293FRT/TO: TNF/PD1: ratio of TNFaFLGluc IC50 to PD1ssGluc IC50. It is filed as cell-based. The gist of the method: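 Flp-In 293 T-REx cells stably carrying doxycycline-inducible full-length TNFα (aa 1-233) fused to Gaussia luciferase. Plated the day before, then treated with compound dilutions in doxycycline-containing medium at 37° C, 5% CO2.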

A short description of data set [6]: Liver Microsome Stability Assay (human). The settings on record: human liver microsomes, with NADPH, 1.0 uM compound.
Procedure: as §1
Data set [7] relates to PD1-ss+10aa/Gaussia Luciferase. Kind of data set: Dox-Induced PD1-ss-Gluc Assay. In kind it is cell-based. The following applies: 24 hr Dox induction, 293FRT/TO cells, read-out: 24 hr Dox Inducible PD1ssGluc 293FRT/TO: Mean IC50. The procedure, abridged: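 Stable Flp-In 293 T-REx cells carried a doxycycline-inducible construct of Gaussia luciferase fused to the PD1 signal sequence plus 10 amino acids. Cells were plated the day before, then treated with compound dilutions in DMSO/media containing doxycycline at 37 °C, 5% CO2.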

Data set [8] is described as follows: Liver Microsome Stability Assay (mouse). The settings on record: mouse liver microsomes, with NADPH, 1.0 uM compound.
Procedure: as §1
The subject of data set [9] is multiple myeloma cell line U266B1. The data set is described as follows: U266 Cell Viability Assay. In kind it is cell-based, human. The settings on record: Homo sapiens, U-266, 48 h, U266B1 cells, Celltiter-Glo. The gist of the method:
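U266B1 multiple myeloma cells in RPMI 1640/10% FBS were treated with compound dilutions for 48 h at 37 °C, 5% CO2. Viability was measured by CellTiter-Glo luminescence; compounds drawn without stereochemistry were tested as stereoisomer mixtures.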
On the technique in general: Cellular ATP, detected with luciferase, serves as a proxy for viable cell number.

Data set [10] relates to multiple myeloma cell line NCI-H929. Kind of data set: H929 Cell Viability Assay. It is filed as cell-based, human. The settings on record: Homo sapiens, NCI-H929, 48 h, NCI-H929 cells, Celltiter-Glo. The procedure, abridged:
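NCI-H929 cells in RPMI 1640 with 10% FBS were treated with compound dilutions for 48 h at 37° C, 5% CO2. Viability was read by CellTiter-Glo luminescence. Undefined stereocentres denote stereoisomer mixtures.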

Setting [11] is: '<=>' given where both are I.A.

As usually defined, the pEC50 is the EC50 on a negative log10 scale, so that one unit is a factor of ten.

pEC50, pIC50: −log10 of the molar value. Read-outs that look alike come from different tables or passages of the source. A value given as a limit tells only on which side of the number the result lay.

As to `O=C(Nc1nc(C#Cc2ccccn2)cs1)c1cccn1Cc1ccncc1` [Compound E3, N-(4-(pyridin-2-ylethynyl)thiazol-2-yl)-1-(pyridin-4-ylmethyl)-1H-pyrrole-2-carboxamide], the “Liver Microsome Stability (Multiple Species): Monkey - % Remaining after 30 min w/NADPH” value in data set [1] was 0.6%. In addition, the pIC50 in data set [2] (mean) was 5.14; in [4] (mean) it was 4.88; in data set [5] (mean), below 4.60; in [7] (mean), 6.10. The “Liver Microsome Stability (Multiple Species): Rat - % Remaining after 30 min w/NADPH” value in [3] worked out at 0.35%. In data set [4] (setting [11]), the “24 hr Dox Inducible IL2FLGluc 293FRT/TO: IL2/PD1” value was determined as 16. In addition, the “24 hr Dox Inducible TNFaFLGluc 293FRT/TO: TNF/PD1” value in data set [5] (setting [11]) is above 31.3. Besides, the “Liver Microsome Stability (Multiple Species): Human - % Remaining after 30 min w/NADPH” value in [6] was found to be 0.35%. Besides, the “Liver Microsome Stability (Multiple Species): Mouse - % Remaining after 30 min w/NADPH” value in [8] stood at 2.41%. Moreover, the pEC50 in data set [9] and in [10] was below 4.60 each time.
In the case of `CC(CC(N)=O)n1cnc(/C=C/c2csc(NC(=O)c3cccn3Cc3ccnc(F)c3)n2)c1` (stereo not drawn) [Compound B111, (E)-N-(4-(2-(1-(4-amino-4-oxobutan-2-yl)-1H-imidazol-4-yl)vinyl)thiazol-2-yl)-1-((2-fluoropyridin-4-yl)methyl)-1H-pyrrole-2-carboxamide], the “Liver Microsome Stability (Multiple Species): Monkey - % Remaining after 30 min w/NADPH” value in data set [1] was determined as 5.79%. Further, the pIC50 in data set [2], in data set [4], in [5] and in [7] was below 4.60 throughout. The “Liver Microsome Stability (Multiple Species): Rat - % Remaining after 30 min w/NADPH” value in [3] is given as 75.4%. Further, the “24 hr Dox Inducible IL2FLGluc 293FRT/TO: IL2/PD1” value in data set [4] is given as “<=>1.0”. Moreover, in data set [5], the “24 hr Dox Inducible TNFaFLGluc 293FRT/TO: TNF/PD1” value is “⇔1.00”. For the same compound, the “Liver Microsome Stability (Multiple Species): Human - % Remaining after 30 min w/NADPH” value in data set [6] is given as 9.45%. Besides, the “Liver Microsome Stability (Multiple Species): Mouse - % Remaining after 30 min w/NADPH” value in data set [8] was 61.7%. Further, the negative logarithm of the EC50 (pEC50) in data set [9] and in [10] was below 4.60 each time.
For the compound `O=C1CCc2cc(N3CCC[C@@H]3c3csc(NC(=O)c4cccn4Cc4ccncc4)n3)ccc2N1` [Compound A75, (R)-N-(4-(1-(2-oxo-1,2,3,4-tetrahydroquinolin-6-yl)pyrrolidin-2-yl)thiazol-2-yl)-1-(pyridin-4-ylmethyl)-1H-pyrrole-2-carboxamide], in [1], the “Liver Microsome Stability (Multiple Species): Monkey - % Remaining after 30 min w/NADPH” value was 0.87%. Besides, the pIC50 in data set [2] is 9.22; in data set [4] it was 8.09; in data set [5], 7.15; in data set [7], 8.60. The “Liver Microsome Stability (Multiple Species): Rat - % Remaining after 30 min w/NADPH” value in data set [3] came out at 0.05%. The “24 hr Dox Inducible IL2FLGluc 293FRT/TO: IL2/PD1” value in data set [4] is given as 3.2. In addition, the “24 hr Dox Inducible TNFaFLGluc 293FRT/TO: TNF/PD1” value in data set [5] was 28.4. The “Liver Microsome Stability (Multiple Species): Human - % Remaining after 30 min w/NADPH” value in data set [6] is reported as 6.4%. Also, in data set [8], the “Liver Microsome Stability (Multiple Species): Mouse - % Remaining after 30 min w/NADPH” value is recorded as 3.74%. Moreover, the values for the pEC50 in [9] and in data set [10] were below 4.60 and 6.60, respectively.
Regarding `NC(=O)CCCCn1cccc1C(=O)Nc1nc([C@H]2CCCN2c2ccccc2)cs1` [Compound C58], the “Liver Microsome Stability (Multiple Species): Monkey - % Remaining after 30 min w/NADPH” value in data set [1] is 27.4%. The pIC50 in data set [2] (mean) was 5.04; in data set [4] (mean) it was below 4.60; in [5] (mean) it was below 4.60; in [7] (mean), 5.10. In data set [3], the “Liver Microsome Stability (Multiple Species): Rat - % Remaining after 30 min w/NADPH” value amounted to 34.7%. Further, the “24 hr Dox Inducible IL2FLGluc 293FRT/TO: IL2/PD1” value in [4] (setting [11]) turned out to be 3.2. Also, the “24 hr Dox Inducible TNFaFLGluc 293FRT/TO: TNF/PD1” value in [5] (setting [11]) is recorded as above 3.17. Further, in data set [6], the “Liver Microsome Stability (Multiple Species): Human - % Remaining after 30 min w/NADPH” value came to 35.7%. Moreover, the “Liver Microsome Stability (Multiple Species): Mouse - % Remaining after 30 min w/NADPH” value in data set [8] amounted to 17%. For the same compound, the pEC50 in data set [9] and in data set [10] was below 4.60 throughout.
As to `CC(=O)Nc1ccc(N2CCC[C@@H]2c2csc(NC(=O)c3cccn3Cc3ccnc(F)c3)n2)cc1` [Compound A68, (R)-N-(4-(1-(4-acetamidophenyl)pyrrolidin-2-yl)thiazol-2-yl)-1-((2-fluoropyridin-4-yl)methyl)-1H-pyrrole-2-carboxamide], the “Liver Microsome Stability (Multiple Species): Monkey - % Remaining after 30 min w/NADPH” value in [1] is on record as 11.8%. Also, the pIC50 was 8.30 in data set [2], 8.22 in data set [4], 7.36 in [5] and 8.63 in data set [7]. The “Liver Microsome Stability (Multiple Species): Rat - % Remaining after 30 min w/NADPH” value in [3] was determined as 16.9%. Further, in data set [4], the “24 hr Dox Inducible IL2FLGluc 293FRT/TO: IL2/PD1” value came to 2.6. Further, the “24 hr Dox Inducible TNFaFLGluc 293FRT/TO: TNF/PD1” value in [5] is listed as 19. In [6], the “Liver Microsome Stability (Multiple Species): Human - % Remaining after 30 min w/NADPH” value was found to be 25.8%. Further, in data set [8], the “Liver Microsome Stability (Multiple Species): Mouse - % Remaining after 30 min w/NADPH” value was determined as 27.5%. In addition, the pEC50 is below 4.60 in [9] and 7.35 in data set [10].
Regarding `CC(=O)Nc1ccc(N2CCC[C@@H]2c2csc(NC(=O)c3cccn3Cc3ccnc(F)c3)n2)c(F)c1` [Compound A98, (R)-N-(4-(1-(4-acetamido-2-fluorophenyl)pyrrolidin-2-yl)thiazol-2-yl)-1-((2-fluoropyridin-4-yl)methyl)-1H-pyrrole-2-carboxamide], the “Liver Microsome Stability (Multiple Species): Monkey - % Remaining after 30 min w/NADPH” value in data set [1] came out at 0.48%. The pIC50 was 8.69 in [2], 8.65 in [4], 7.70 in [5] and 9.04 in data set [7]. The “Liver Microsome Stability (Multiple Species): Rat - % Remaining after 30 min w/NADPH” value in data set [3] worked out at 1.18%. Besides, the “24 hr Dox Inducible IL2FLGluc 293FRT/TO: IL2/PD1” value in data set [4] worked out at 2.5. The “24 hr Dox Inducible TNFaFLGluc 293FRT/TO: TNF/PD1” value in data set [5] was 22.2. Further, the “Liver Microsome Stability (Multiple Species): Human - % Remaining after 30 min w/NADPH” value in data set [6] amounted to 2.43%. In addition, the “Liver Microsome Stability (Multiple Species): Mouse - % Remaining after 30 min w/NADPH” value in [8] is 1.29%. Moreover, the pEC50 in [9] was below 4.60; in data set [10], 7.65.
Consider `CCc1ccc(N2CCC[C@@H]2c2csc(NC(=O)c3cccn3CC3CCOCC3)n2)cn1` [Compound C96, (R)-N-(4-(1-(6-ethylpyridin-3-yl)pyrrolidin-2-yl)thiazol-2-yl)-1-((tetrahydro-2H-pyran-4-yl)methyl)-1H-pyrrole-2-carboxamide], for which the “Liver Microsome Stability (Multiple Species): Monkey - % Remaining after 30 min w/NADPH” value in data set [1] was found to be 0.13%. The pIC50 was 7.22 in data set [2] (mean), 6.55 in [4] (mean), 6.03 in [5] (mean) and 7.20 in data set [7] (mean). Moreover, in data set [3], the “Liver Microsome Stability (Multiple Species): Rat - % Remaining after 30 min w/NADPH” value is 0.76%. Besides, the “24 hr Dox Inducible IL2FLGluc 293FRT/TO: IL2/PD1” value in data set [4] (setting [11]) was determined as 4.4. For the same compound, the “24 hr Dox Inducible TNFaFLGluc 293FRT/TO: TNF/PD1” value in [5] (setting [11]) worked out at 14.8. In addition, the “Liver Microsome Stability (Multiple Species): Human - % Remaining after 30 min w/NADPH” value in data set [6] is given as 0.07%. Also, in data set [8], the “Liver Microsome Stability (Multiple Species): Mouse - % Remaining after 30 min w/NADPH” value came to 6.58%. Besides, the pEC50 in data set [9] is below 4.60; in data set [10], 5.53.
